This is an account of results in patent US10077236B2, “Azacyclic constrained analogs of FTY720” (The Regents of the University of California, priority 2013, dated 2018).

In one data set the test system is Blin-1 Ph- ALL cell line. The experiment in a line: Cell viability assay, Blin-1. The data set is classed as cell-based, human. Particulars: 72 h, vital dye exclusion and flow cytometry; read-out: Mean IC50 (+/- SEM) in cell viability assay, Blin-1 Ph- ALL. The source says:
(§1) Leukemia cell assays: Effects of chemical changes on ability to kill cells as observed in cell viability assays using the BCR-ABL positive human acute lymphoblastic leukemia (ALL) cell line, Sup-B15 are described. Assays using the Sup-B15 cell line were designed to determine efficacy of azacyclic constrained small molecule analogs of FTY720 in killing leukemia cells. Analogs were generated using the synthesis methods mentioned above. Sup-B15 cells were maintained at 2-3 million/mL in RPMI 1640 (by Mediatech™) supplemented with 10% fetal calf serum (by Sigma-Aldrich™), 10 mM Hepes (by Mediatech™), 55 μM β-mercaptoethanol (by Sigma-Aldrich™), 2 mM L-glutamine (by Mediatech™), and antibiotics. BV173, Nalm-6, and Blin-1 were maintained at 1-2 million/mL and CCRF-CEM at less than 500,000/mL in the same medium. BMp190 cells were created by transducing murine bone marrow cells with pMIC-p190 which expresses the p190 isoform of BCR-Abl and human CD4 from an IRES; these cells were kept at 1-2 million/mL in RPMI supplemented as above.
(§2) Flow cytometry: Much of the biological activity presented is shown through flow cytometry data. […] Here, IC50 flow cytometry assays were used. In them, viability was determined at 72 hours by vital dye exclusion [propium iodide or DAPI (4′,6-diamindino-2-phenylindole)]. To measure nutrient receptor expression following exposure to FTY720 and azacyclic constrained analogs of FTY720, surface 4F2hc expression was measured after 3 hours of drug treatment by staining 150,000 cells with phycoerythrin-conjugated mouse anti-human CD98 (by BD Biosciences™). Analysis was restricted to viable cells.
(§3) All samples for the disclosed sets of data were analyzed on a BD LSR II flow cytometer and data analyzed with FlowJo™ software (by Treestar™). IC50's were calculated and statistical tests were performed using GraphPad Prism™.
Background: Flow cytometry measures light scatter and fluorescence of single cells or particles in a stream.

The subject of a further data set is SphK1 null MEFs. The experiment in a line: Sensitivity of SphK1 null MEFs. Format: cell-based. The method, then:
(§4) The importance of phosphorylation in the activity of compound 6 was then examined. In this study MEF knockout lines that show the same differential sensitivity to compound 6 relative to its enantiomers as leukemia cells were used (FIG. 10h). […] A phosphate and a non-phosphorylatable analog of compound 6 were then tested.

For the next data set, the system named is circulating lymphocytes. The experiment in a line: Lymphocyte sequestration (circulating lymphocytes). Format: in vivo, mouse. The settings on record: number of circulating lymphocytes 12 h after dosage. The source says: (§5) As previously discussed, FTY720 itself cannot be used in cancer patients because phosphorylation of FTY720 by SphKs makes FTY720-P, which acts at S1P receptors to cause bradycardia and immunosuppression (on-target effect for primary use).

A further data set has as its system BCR-Abl- LAX7R cells. The experiment in a line: Combination with trametinib in BCR-Abl- LAX7R patient leukemia cells. The data set is classed as cell-based, human. The settings on record: some BCR-Abl negative patient leukemia samples. The source says:
(§6) FIGS. 10n and 10o provide data results from a study of the effectiveness of treating BCR-Abl+ SFO2 cells (10n), and also in BCR-Abl− LAX7R cells (10o), which is a late-stage leukemia resistant to chemotherapy.

The next data set concerns BCR-Abl+ SFO2 cells. The experiment in a line: Combination with trametinib in BCR-Abl+ SFO2 patient-derived leukemia cells. The data set is classed as cell-based, human. Particulars: cytostatic concentration of trametinib + cytostatic concentration of compound 6.
From the text: as §6

The nature of data set [1]: Mouse heart rate by telemetry. Format: in vivo. Particulars: telemetry for 24 h after administration of anti-cancer dose.
From the text: as §5

The test system of the next data set is human colon cancer cells. The experiment in a line: Combination with trametinib in human colon cancer cells. The data set is classed as cell-based.
Another data set deals with T1, sphingosine kinase 2 (Mus musculus, UniProt Q9JIA7).
T1 construct: endogenous in cells
T1 sequence (Q9JIA7 1-617): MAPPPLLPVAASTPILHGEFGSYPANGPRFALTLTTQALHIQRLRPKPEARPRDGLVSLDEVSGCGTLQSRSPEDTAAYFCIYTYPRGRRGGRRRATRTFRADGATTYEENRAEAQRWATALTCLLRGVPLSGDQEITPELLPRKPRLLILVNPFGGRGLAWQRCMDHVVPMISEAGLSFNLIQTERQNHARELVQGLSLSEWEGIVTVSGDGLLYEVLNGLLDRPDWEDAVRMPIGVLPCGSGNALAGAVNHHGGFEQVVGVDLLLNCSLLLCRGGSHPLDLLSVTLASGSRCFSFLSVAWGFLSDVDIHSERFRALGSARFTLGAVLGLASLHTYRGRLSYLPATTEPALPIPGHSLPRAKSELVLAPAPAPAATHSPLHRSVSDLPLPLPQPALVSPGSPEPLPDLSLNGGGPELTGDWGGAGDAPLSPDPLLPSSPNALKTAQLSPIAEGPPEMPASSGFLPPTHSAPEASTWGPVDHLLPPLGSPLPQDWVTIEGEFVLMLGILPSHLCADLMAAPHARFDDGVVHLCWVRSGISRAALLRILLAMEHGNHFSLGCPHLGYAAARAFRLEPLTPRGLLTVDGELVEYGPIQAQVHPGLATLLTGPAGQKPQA
The experiment in a line: Phosphorylation by sphingosine kinase 2 in cells. Format: cell-based. The protocol:
as §4

Data set [2] relates to CCRF-CEM Ph- ALL cell line. The experiment in a line: Cell viability assay, CCRF-CEM. Format: cell-based, human. The settings on record: 72 h, vital dye exclusion and flow cytometry; read-out: Mean IC50 (+/- SEM) in cell viability assay, CCRF-CEM Ph- ALL.
From the text: as §1, §2, §3

As for `CCCCCCCCc1ccc(CO[C@@H]2CN[C@@H](CO)C2)cc1.Cl` [Compound 6], the IC50 with Blin-1 Ph- ALL cell line is 6.9 ± 0.3 µM. Also, in the data set on SphK1 null MEFs, the “differential sensitivity to compound 6 relative to its enantiomers” value was “this difference is maintained”. The “lymphocyte sequestration / immunosuppression” value in the data set with circulating lymphocytes is “does not cause immunosuppression”. Also, in the data set on BCR-Abl- LAX7R cells, the “sensitivity, combination with trametinib” value is given as “sensitive to this drug combination” and the “sensitivity, single agent” value is “not sensitive to compound 6 as a single agent”. Besides, the “cell killing, combination with trametinib” value in the data set with BCR-Abl+ SFO2 cells was “kills patient-derived leukemia cells without killing the irradiated stromal cell layer”. For the same compound, the “effect on heart rate” value in data set [1] was “nor does it decrease heart rate”. Also, in the data set with human colon cancer cells, the “cell killing, combination of trametinib and compound 6” value is listed as “can kill human colon cancer cells”; the “cell killing, single agent” value was “do not die”. In addition, the “phosphorylation by sphingosine kinase 2 in cells” value on sphingosine kinase 2 is “more efficient”. Also, the IC50 in [2] amounted to 8.2 ± 0.7 µM.
